One assay addresses T1, CRF1R (Homo sapiens, UniProt P34998).
T1 sequence (P34998 24-415): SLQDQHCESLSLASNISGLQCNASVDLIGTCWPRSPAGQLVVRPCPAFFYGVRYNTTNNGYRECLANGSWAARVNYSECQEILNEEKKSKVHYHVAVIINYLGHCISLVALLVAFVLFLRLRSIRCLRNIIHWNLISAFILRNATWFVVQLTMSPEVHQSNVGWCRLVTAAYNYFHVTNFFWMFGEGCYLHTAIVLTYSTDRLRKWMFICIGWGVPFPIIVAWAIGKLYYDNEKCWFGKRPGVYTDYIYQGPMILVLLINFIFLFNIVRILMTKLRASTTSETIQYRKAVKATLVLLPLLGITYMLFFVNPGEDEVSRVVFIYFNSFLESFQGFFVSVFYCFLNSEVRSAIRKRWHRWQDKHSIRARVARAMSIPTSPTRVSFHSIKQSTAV
The experiment in a line: CRF1R agonist activity (EC50, Emax), called comparative CRF binding. It is filed as cell-based. The conditions noted are these: read-out: CRF1R EC50. Put shortly: (§1)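 cAMP read-out: CRE-linked reporter (e.g. luciferase, CAT, GFP) or lysate cAMP in CRF1R- or CRF2R-expressing cells after peptide exposure; vehicle control comparison. Signal from any non-target CRFR subtracted.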

For another assay, the target named is T2, CRF2R (Homo sapiens, UniProt Q13324).
T2 sequence (Q13324 1-411): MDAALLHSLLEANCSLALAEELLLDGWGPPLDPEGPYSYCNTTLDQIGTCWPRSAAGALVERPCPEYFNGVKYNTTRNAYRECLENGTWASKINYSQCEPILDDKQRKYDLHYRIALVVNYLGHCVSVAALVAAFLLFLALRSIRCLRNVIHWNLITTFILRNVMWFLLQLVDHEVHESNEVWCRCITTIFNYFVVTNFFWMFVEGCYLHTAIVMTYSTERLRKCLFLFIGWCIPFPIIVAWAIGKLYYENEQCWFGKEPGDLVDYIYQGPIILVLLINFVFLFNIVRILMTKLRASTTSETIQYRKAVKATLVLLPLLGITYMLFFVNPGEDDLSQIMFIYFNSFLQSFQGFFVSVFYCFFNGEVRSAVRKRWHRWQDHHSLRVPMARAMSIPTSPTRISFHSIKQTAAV
The experiment in a line: CRF2R agonist activity (EC50, Emax), called comparative CRF binding. It is filed as cell-based. The note with it: read-out: CRF2R EC50. Put shortly:
as §1

pEC50: −log10 of the molar value. Peptide text beside a SMILES is read from it.

One may read the pEC50 as the negative decadic logarithm of the EC50, by convention in mol/L. As to `CC[C@H](C)[C@H](N)C(=O)N[C@H](C(=O)N[C@@H](CC(C)C)C(=O)N[C@@H](CO)C(=O)N[C@@H](CC(C)C)C(=O)N[C@@H](CC(=O)O)C(=O)N[C@H](C(=O)N1CCC[C@H]1C(=O)N[C@H](C(=O)NCC(=O)N[C@@H](CC(C)C)C(=O)N[C@@H](CC(C)C)C(=O)N[C@@H](CCC(N)=O)C(=O)N[C@@H](CCCCN)C(=O)N[C@H](C(=O)N[C@H](C(=O)N[C@@H](CCC(=O)O)C(=O)N[C@H](C(=O)N[C@@H](CCC(=O)O)C(=O)N[C@@H](CCCCN)C(=O)N[C@@H](CCC(N)=O)C(=O)N[C@@H](CCC(=O)O)C(=O)N[C@@H](CCCCN)C(=O)N[C@@H](CCC(=O)O)C(=O)N[C@@H](CCCCN)C(=O)N[C@@H](CCC(N)=O)C(=O)N[C@@H](CCC(N)=O)C(=O)N[C@@H](C)C(=O)N[C@H](C(=O)N[C@H](C(=O)N[C@@H](CC(N)=O)C(=O)N[C@@H](C)C(=O)N[C@@H](CCCNC(=N)N)C(=O)N[C@H](C(=O)N[C@@H](CC(C)C)C(=O)N[C@@H](C)C(=O)N[C@@H](CCCNC(=N)N)C(=O)N[C@H](C(N)=O)C(C)C)[C@@H](C)CC)[C@@H](C)O)[C@@H](C)O)[C@@H](C)CC)[C@@H](C)CC)C(C)C)[C@@H](C)CC)C(C)C)C(C)C` [compound 300] (H-IVLSLDVPIGLLQKVIEIEKQEKEKQQATTNARILARV-NH2; N-terminus assumed), the pEC50 is at most 6.00 at CRF1R and 7.77 at CRF2R.

As for `CC[C@H](C)[C@H](NC(=O)[C@H](CCC(=O)O)NC(=O)[C@H](C)NC(=O)[C@H](CC(N)=O)NC(=O)[C@H](CCC(N)=O)NC(=O)[C@H](CCC(=O)O)NC(=O)[C@H](C)NC(=O)[C@H](CCCNC(=N)N)NC(=O)[C@H](CCC(=O)O)NC(=O)[C@H](CCCNC(=N)N)NC(=O)[C@H](CCC(N)=O)NC(=O)[C@H](CO)NC(=O)[C@H](CCC(N)=O)NC(=O)[C@@H](NC(=O)[C@H](CCCCN)NC(=O)[C@H](CCC(=O)O)NC(=O)[C@H](CC(C)C)NC(=O)[C@H](CCC(=O)O)NC(=O)[C@H](CC(C)C)NC(=O)[C@H](CC(C)C)NC(=O)[C@@H](NC(=O)[C@H](CCCNC(=N)N)NC(=O)[C@H](CC(C)C)NC(=O)[C@H](CC(C)C)NC(=O)[C@H](CC(C)C)NC(=O)[C@H](CC(C)C)NC(=O)[C@@H]1CCCN1C(=O)[C@H](CC(C)C)NC(=O)[C@H](CC(=O)O)NC(=O)[C@@H](NC(=O)[C@H](CO)NC(=O)[C@H](CC(C)C)NC(=O)[C@H](CO)NC(=O)[C@@H]1CCCN1C(=O)[C@H](CC(N)=O)NC(=O)[C@@H](N)CC(=O)O)[C@@H](C)CC)[C@@H](C)O)[C@@H](C)O)C(=O)N[C@@H](Cc1ccccc1)C(=O)N[C@@H](C)C(=O)N[C@@H](CCC(=O)O)C(=O)N[C@H](C(N)=O)C(C)C` [compound 323] (H-DNPSLSIDLPLLLLRTLLELEKTQSQRERAEQNAEIFAEV-NH2; N-terminus assumed), the pEC50 was at most 6.00 at CRF1R and 7.71 at CRF2R.

Turning to `CC[C@H](C)[C@H](NC(=O)[C@H](CCC(N)=O)NC(=O)[C@H](C)NC(=O)[C@H](CC(N)=O)NC(=O)[C@H](CCC(N)=O)NC(=O)[C@H](CCC(=O)O)NC(=O)[C@H](C)NC(=O)[C@H](CCCNC(=N)N)NC(=O)[C@H](CCC(=O)O)NC(=O)[C@H](CCCNC(=N)N)NC(=O)[C@H](CCC(N)=O)NC(=O)[C@H](CO)NC(=O)[C@H](CCC(N)=O)NC(=O)[C@@H](NC(=O)[C@H](CCCCN)NC(=O)[C@H](CCC(=O)O)NC(=O)[C@H](CC(C)C)NC(=O)[C@H](CCC(=O)O)NC(=O)[C@H](CC(C)C)NC(=O)[C@H](CC(C)C)NC(=O)[C@@H](NC(=O)[C@H](CCCNC(=N)N)NC(=O)[C@H](CC(C)C)NC(=O)[C@H](CC(C)C)NC(=O)[C@H](CC(C)C)NC(=O)[C@H](CC(C)C)NC(=O)[C@@H]1CCCN1C(=O)[C@H](CC(C)C)NC(=O)[C@H](CC(=O)O)NC(=O)[C@@H](NC(=O)[C@H](CO)NC(=O)[C@H](CC(C)C)NC(=O)[C@H](CO)NC(=O)[C@@H]1CCCN1C(=O)[C@H](CC(N)=O)NC(=O)[C@@H](N)CC(=O)O)[C@@H](C)CC)[C@@H](C)O)[C@@H](C)O)C(=O)N[C@@H](Cc1ccccc1)C(=O)N[C@@H](C)C(=O)N[C@@H](CCC(N)=O)C(=O)N[C@H](C(N)=O)C(C)C` [compound 327] (H-DNPSLSIDLPLLLLRTLLELEKTQSQRERAEQNAQIFAQV-NH2; N-terminus assumed), the results for the pEC50 on CRF1R and at CRF2R were at most 6.00 and 7.55, respectively.

For `CC[C@H](C)[C@H](NC(=O)[C@H](CCCNC(=N)N)NC(=O)[C@H](C)NC(=O)[C@H](CC(N)=O)NC(=O)[C@H](CCC(N)=O)NC(=O)[C@H](CCC(=O)O)NC(=O)[C@H](C)NC(=O)[C@H](CCCNC(=N)N)NC(=O)[C@H](CCC(=O)O)NC(=O)[C@H](CCCNC(=N)N)NC(=O)[C@H](CCC(N)=O)NC(=O)[C@H](CO)NC(=O)[C@H](CCC(N)=O)NC(=O)[C@@H](NC(=O)[C@H](CCCNC(=N)N)NC(=O)[C@H](C)NC(=O)[C@H](CC(C)C)NC(=O)[C@H](CCC(=O)O)NC(=O)[C@H](CC(C)C)NC(=O)[C@H](CC(C)C)NC(=O)[C@@H](NC(=O)[C@H](CCCNC(=N)N)NC(=O)[C@H](CC(C)C)NC(=O)[C@H](CC(C)C)NC(=O)[C@H](Cc1ccccc1)NC(=O)[C@H](CC(C)C)NC(=O)[C@@H]1CCCN1C(=O)[C@H](CC(C)C)NC(=O)[C@H](CC(=O)O)NC(=O)[C@@H](NC(=O)[C@H](CO)NC(=O)[C@H](CC(C)C)NC(=O)[C@H](CO)NC(=O)[C@@H]1CCCN1C(=O)[C@H](CC(N)=O)NC(=O)[C@@H](N)CC(=O)O)[C@@H](C)CC)[C@@H](C)O)[C@@H](C)O)C(=O)N[C@@H](Cc1ccccc1)C(=O)N[C@@H](C)C(=O)N[C@@H](CCCNC(=N)N)C(=O)N[C@H](C(N)=O)C(C)C` [compound 329] (H-DNPSLSIDLPLFLLRTLLELARTQSQRERAEQNARIFARV-NH2; N-terminus assumed), the pEC50 on CRF1R is at most 6.00; on CRF2R, 8.29.

Turning to `CC[C@H](C)[C@H](NC(=O)[C@H](CCCNC(=N)N)NC(=O)[C@H](C)NC(=O)[C@H](CC(N)=O)NC(=O)[C@H](CCC(N)=O)NC(=O)[C@H](CCC(=O)O)NC(=O)[C@H](C)NC(=O)[C@H](CCCNC(=N)N)NC(=O)[C@H](CCC(=O)O)NC(=O)[C@H](CCCNC(=N)N)NC(=O)[C@H](CCC(N)=O)NC(=O)[C@H](CO)NC(=O)[C@H](CCC(N)=O)NC(=O)[C@@H](NC(=O)[C@H](CCCCN)NC(=O)[C@H](CCC(=O)O)NC(=O)[C@H](CC(C)C)NC(=O)[C@H](CCC(=O)O)NC(=O)[C@H](CC(C)C)NC(=O)[C@H](CC(C)C)NC(=O)[C@@H](NC(=O)[C@H](CCCNC(=N)N)NC(=O)[C@H](CC(C)C)NC(=O)[C@H](CC(C)C)NC(=O)[C@H](Cc1ccccc1)NC(=O)[C@H](CC(C)C)NC(=O)[C@@H]1CCCN1C(=O)[C@H](CC(C)C)NC(=O)[C@H](CC(=O)O)NC(=O)[C@@H](NC(=O)[C@H](CO)NC(=O)[C@H](CC(C)C)NC(=O)[C@H](CO)NC(=O)[C@@H]1CCCN1)[C@@H](C)CC)[C@@H](C)O)[C@@H](C)O)C(=O)N[C@@H](Cc1ccccc1)C(=O)N[C@@H](C)C(=O)N[C@@H](CCCNC(=N)N)C(=O)N[C@H](C(N)=O)C(C)C` [compound 331] (H-PSLSIDLPLFLLRTLLELEKTQSQRERAEQNARIFARV-NH2; N-terminus assumed), the pEC50 on CRF1R is at most 6.00; at CRF2R, 8.01.

With `CC[C@H](C)[C@H](NC(=O)[C@H](CCCNC(=N)N)NC(=O)[C@H](C)NC(=O)[C@H](CC(N)=O)NC(=O)[C@H](CCC(N)=O)NC(=O)[C@H](CCC(=O)O)NC(=O)[C@H](C)NC(=O)[C@H](CCCNC(=N)N)NC(=O)[C@H](CCC(=O)O)NC(=O)[C@H](CCCNC(=N)N)NC(=O)[C@H](CCC(N)=O)NC(=O)[C@H](CO)NC(=O)[C@H](CCC(N)=O)NC(=O)[C@@H](NC(=O)[C@H](CCCCN)NC(=O)[C@H](CCC(=O)O)NC(=O)[C@H](CC(C)C)NC(=O)[C@H](CCC(=O)O)NC(=O)[C@H](CC(C)C)NC(=O)[C@H](CC(C)C)NC(=O)[C@@H](NC(=O)[C@H](CCCNC(=N)N)NC(=O)[C@H](CC(C)C)NC(=O)[C@H](CC(C)C)NC(=O)[C@@H](NC(=O)[C@H](CC(C)C)NC(=O)[C@@H]1CCCN1C(=O)[C@H](CC(C)C)NC(=O)[C@H](CC(=O)O)NC(=O)[C@@H](NC(=O)[C@H](CO)NC(=O)[C@H](CC(C)C)NC(=O)[C@H](CO)NC(=O)[C@@H]1CCCN1)[C@@H](C)CC)[C@@H](C)CC)[C@@H](C)O)[C@@H](C)O)C(=O)N[C@@H](Cc1ccccc1)C(=O)N[C@@H](C)C(=O)N[C@@H](CCCNC(=N)N)C(=O)N[C@H](C(N)=O)C(C)C` [compound 332] (H-PSLSIDLPLILLRTLLELEKTQSQRERAEQNARIFARV-NH2; N-terminus assumed), the pEC50 at CRF1R is at most 6.00; at CRF2R, 8.00.

The record behind these values is patent US7192924B2, “Corticotropin releasing factor 2 receptor agonists” (priority 2002, dated 2007).
